Data set [1] has as its system rats that have undergone an intestinal resection (short-bowel syndrome model). The data set can be described thus: Short-bowel syndrome model: enteral nutrition supplemented with citrulline or arginine after intestinal resection. It counts as in vivo, Wistar rats. Conditions: for weight gain: resected rats (approx. 80% of small intestine), after 10 days of enteral nutrition, L-citrulline 1 g/kg/day or L-arginine 0.994 g/kg/day, AANE approx. 15 g, SHAM approx. 21 g (FIG. 1). From the text:
The rat was chosen as model to evaluate the effect of supplementation with citrulline within the framework of an intestinal insufficiency and in particular within the framework of the short-bowel syndrome.
24 Wistar rats weighing approximately 220-230 g were used. They were acclimatized in metabolic cages for 5 days before being operated on; during this period they had free access to water and standard laboratory food.
The intakes of L-arginine and L-citrulline correspond to those used in humans taking account of the difference in metabolic rate between the two species (rate approximately 10 times higher in the rat).
Enteral nutrition was carried out for 10 days continuously by the insertion of a gastric probe. The nitrogen intake was 2 g/kg/day and the calorie intake 290 kcal/kg/day. The food rations were rendered isonitrogenous by intake of a mixture of non-essential amino acids (Gly, Ala, Ser, His, Pro, Asn) (Sigma-Aldrich).
Three types of measurements were carried out in particular: a daily measurement of the weight of the animals, a measurement of the concentration of arginine in the plasma at the end of the experiment by ion-exchange chromatography using a JEOL device and a daily monitoring of the cumulative nitrogen balance by adding up the daily differences between the quantity of nitrogen absorbed and the quantity of nitrogen evacuated in the urine by pyroluminescence using an ANTEK apparatus.

A short description of data set [2]: Plasma amino acid concentrations in malnourished aged rats after renutrition. It counts as in vivo, Sprague-Dawley rats. To be noted: male, Sprague-Dawley, rat, plasma, oral; elderly malnourished rats, diet enriched with L-citrulline 5 g/kg/d for a week; average ± SDM; p<0.05 vs AL, R and AANE. On the procedure: (§1) Male Sprague-Dawley rats (Charles River Laboratories, L'Arbresles, France) aged 19 months were placed in individual cages, in a thermostatically controlled ambience (23°±1° C.), and subjected to a 12-hour light-darkness cycle (darkness from 08.00 hours to 20.00 hours). Their acclimatization was carried out over 2 weeks, during which their spontaneous food consumption was measured. They were fed a standard diet (A04, UAR, Villemoisson-sur-Orge, France) containing 17% proteins, 3% lipids, 59% carbohydrates and 21% water, fibres, vitamins and minerals. The average food intake during this period is 34.4 g/day.
(§2) After the acclimatization period, the rats were divided into 4 groups (cf. FIG. 5): a control group comprising rats (n=10) fed ad libitum (AL) for 12 weeks and 3 other groups subjected to a food restriction during the same period, i.e. fed with only 50% of the spontaneous ingesta (i.e. 17.2 g), with the standard diet (UAR A04).
(§3) At the end of the restriction period, the animals (n=10) in one group were […] sacrificed (group R) and the rats of the two remaining groups were fed for a week with 90% of the spontaneous ingesta (i.e. 30.9 g), either on a diet enriched with non-essential amino acids (AANE group: alanine, asparagine, glycine, serine, histidine, and proline supplied in equimolar fashion) or on a diet enriched with L-citrulline (5 g/kg/d) (citrulline group). The intakes of the two groups were isonitrogenous and isocaloric. The limitation to 90% of the spontaneous intakes makes it possible to be certain that the rats consume all of the food offered to them (Walrand et al., 2000).
(§4) At the end of the experimental period, the rats, in post-absorptive situation, were anaesthetized with isoflurane (3%) and received a subcutaneous injection of ^13C-valine at variable times before being killed by decapitation.
(§5) The blood was collected on heparin and centrifuged (3500 rpm, at +4° C. for 15 minutes). […]
(§6) The results are presented in the form of an average ±standard deviation from the mean (SDM). The results are analyzed by an ANOVA followed by an a posteriori Duncan test. […]

Data set [3] relates to elderly malnourished rats. The description is as above. The data set is classed as in vivo, Sprague-Dawley rats. To be noted: diet enriched with L-citrulline 5 g/kg/d for a week, average ± SDM, p<0.05 vs AL, R and AANE. On the procedure:
as §1, §2, §3, §4, §5, §6

Data set [4] has as its system elderly malnourished rats. The data set can be described thus: Tibialis muscle amino acid content in malnourished aged rats after renutrition. It counts as in vivo, Sprague-Dawley rats. To be noted: diet enriched with L-citrulline 5 g/kg/d for a week, average ± SDM, p<0.05 vs AL, R and AANE. As for the experimental part: as §1, §2, §3
The 2 Tibialis muscles (TIB) were removed in order to determine on the one hand the protein and amino acid content (right TIB) and on the other hand, the fractional (FSR) and absolute (ASR) protein synthesis rates (left TIB). […]
as §6

For data set [5], the system named is elderly malnourished rats. The data set can be described thus: Tibialis muscle protein synthesis rate (13C-valine incorporation) in malnourished aged rats after renutrition. The data set is classed as in vivo, Sprague-Dawley rats. To be noted: L-citrulline 5 g/kg/d for a week. As for the experimental part: as §1
(§7) After the acclimatization period, the rats were divided into 4 groups (cf. FIG. 5): a control group comprising rats (n=10) fed ad libitum (AL) for 12 weeks and 3 other groups subjected to a food restriction during the same period, i.e. fed with only 50% of the spontaneous ingesta (i.e. 17.2 g), with the standard diet (UAR A04). […]
The synthesis rate was determined on the TIB by the method of injecting a dose of a tracer amino acid charge. […]

Data set [6] deals with elderly malnourished rats. As to the kind of experiment: Tibialis muscle protein content (Gornall method) in malnourished aged rats after renutrition. The data set is classed as in vivo, Sprague-Dawley rats. To be noted: after renutrition phase, L-citrulline 5 g/kg/d for a week; CIT vs AL, R, AANE, p<0.05 (FIG. 4). As for the experimental part: as §1, §7
Determination of the protein content was carried out on the TIB. […] The proteins content of the TIB is measured by the Gornall method. […]
as §6

Turning to `N=C(N)NCCC[C@H](N)C(=O)O` [ARG, L-arginine, reference compound], the weight gain result in data set [1] is reported as “approximately 17 g”. Also, the “concentration of arginine in the plasma” value in data set [1] (resected rats, after 10 days of supplemented enteral nutrition, compared with SHAM control (FIG. 2)) was “increase the concentration of arginine in the plasma compared with the control”.
In data set [2], `NC(=O)NCCC[C@H](N)C(=O)O` [CIT, L-citrulline] yielded a concentration at 1 week of 2390 ± 279 µM. In addition, in data set [3], the “Concentration of Ornithine in the plasma” value was determined as 223 ± 27 µmol/L and the “concentration of arginine in the plasma” value stood at 561 ± 55 µmol/L. Besides, in data set [4], the “Concentration of Arginine in the TIB” value is listed as 203 ± 35 nmol/g, the “Concentration of Citrulline in the TIB” value is 616 ± 104 nmol/g and the “Concentration of Ornithine in the TIB” value was 20 ± 4 nmol/g. The weight gain result in data set [1] is given as “approximately 21 g”. Further, in data set [1] (resected rats, 10 days of supplemented enteral nutrition, compared with SHAM control (FIG. 3)), the cumulative nitrogen balance result is given as “re-establish a nitrogen balance in the animals that have undergone resection, at the same level as that of the control group”. For the same compound, in data set [5] (compared with the other groups (FIG. 5A)), the “fractional protein synthesis rate (FSR) in the Tibialis muscle” value was “does not seem significant”. Further, in data set [5] (CIT vs R and AANE, p<0.05 (FIG. 5B)), the “absolute protein synthesis rate (ASR) in the Tibialis muscle” value is “significant increase”. For the same compound, the “protein concentrations in the TIB” value in data set [6] is “significant increase”.

The record behind these values is US20050239891A1, “Use of citrulline within the framework of intestinal insufficiency” (priority 2003, published 2005).
